One test deals with T1, BRAF V600E (Homo sapiens, UniProt P15056, V600E).
T1 construct: expressed in transfected cells
Put plainly: Cellular assay of target protein degradation, T-Rex 293 cells stably transfected with HA-BRAF_V600E (HA immunofluorescence, high content imaging). The test is classed as cell-based. As to conditions: T-Rex 293 HA-BRAF V600E; for DC50: half maximal degradation, read-out: BRaf V600E DC50; for Dmax: maximum degradation observed. The method, boiled down: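 Cells are plated with 1 ng/mL doxycycline and grown 24 h. Compound is then added (final 1 μM–0.1 nM, 0.1% DMSO) for another 24 h at 37 °C, followed by fixing, HA immunostaining and imaging to obtain DC50 and Dmax.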

The target of the next test is T2, BRAF G466V (Homo sapiens, UniProt P15056, G466V).
T2 construct: expressed in transfected cells
Put plainly: Cellular assay of target protein degradation, T-Rex 293 cells stably transfected with HA-BRAF G466V (HA immunofluorescence, high content imaging). Type of test: cell-based. To be noted: T-Rex 293 HA-BRAF G466V; for DC50: half maximal degradation, read-out: BRaf G466V DC50; for Dmax: maximum degradation observed. The method, boiled down:
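Read-out is HA immunofluorescence by high content imaging, with Hoechst and phalloidin co-staining, giving DC50 and Dmax as a percentage of control. Compound exposure lasts 24 hours at 37° C over 30 nM to 3 pM in 0.1% DMSO, with doxycycline-induced HA-BRAF G466V.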

A word on the DC50: it is the concentration at which degradation of the target reaches its halfway point. The Dmax is the largest share of the target that was removed.

T2 sequence (P15056 whole entry G466V): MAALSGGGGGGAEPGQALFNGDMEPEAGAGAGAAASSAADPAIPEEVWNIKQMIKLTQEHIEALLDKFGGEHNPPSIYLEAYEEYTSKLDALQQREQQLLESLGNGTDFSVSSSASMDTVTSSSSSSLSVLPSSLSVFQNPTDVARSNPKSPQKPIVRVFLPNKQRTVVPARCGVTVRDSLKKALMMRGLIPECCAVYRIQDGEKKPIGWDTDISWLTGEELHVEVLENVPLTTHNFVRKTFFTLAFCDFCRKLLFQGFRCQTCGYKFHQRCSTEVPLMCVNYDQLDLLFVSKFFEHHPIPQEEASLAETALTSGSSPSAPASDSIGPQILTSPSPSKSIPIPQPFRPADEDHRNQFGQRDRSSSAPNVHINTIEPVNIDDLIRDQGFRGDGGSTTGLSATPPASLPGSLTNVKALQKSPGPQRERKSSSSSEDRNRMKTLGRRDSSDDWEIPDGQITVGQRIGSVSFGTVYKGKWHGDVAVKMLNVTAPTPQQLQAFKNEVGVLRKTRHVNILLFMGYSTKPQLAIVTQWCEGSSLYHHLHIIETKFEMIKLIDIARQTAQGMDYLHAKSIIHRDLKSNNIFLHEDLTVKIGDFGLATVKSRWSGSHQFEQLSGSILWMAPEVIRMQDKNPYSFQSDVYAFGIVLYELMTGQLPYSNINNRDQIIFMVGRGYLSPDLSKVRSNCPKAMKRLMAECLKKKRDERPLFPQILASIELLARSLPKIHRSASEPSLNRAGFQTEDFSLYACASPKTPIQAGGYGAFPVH
T1 sequence (P15056 whole entry V600E): as the sequence (P15056 whole entry G466V) above, with V466G, V600E counted along it

`O=C1CCC(N2Cc3cc(CCCCN4CCC(c5ccc(-c6cnc7[nH]cc(C(=O)c8c(F)ccc(NS(=O)(=O)N9CC[C@@H](F)C9)c8F)c7c6)cc5)CC4)ccc3C2=O)C(=O)N1` (stereo partly drawn) [Compound 332, (3R)-N-(3-{5-[4-(1-{4-[2-(2,6-dioxopiperidin-3-yl)-1-oxo-2,3-dihydro-1H-isoindol-5-yl]butyl}piperidin-4-yl)phenyl]-1H-pyrrolo[2,3-b]pyridine-3-carbonyl}-2,4-difluorophenyl)-3-fluoropyrrolidine-1-sulfonamide]: on BRAF V600E, the DC50 was in the range of 0.005 to 0.05 µM and the greatest degradation seen (Dmax) lay within 35 to 70%. On BRAF G466V, the DC50 lay in the range of 0.001 to 0.01 µM and the Dmax was above 70%.
As to `O=C1CCC(N2Cc3cc(N4CCN(CC5CCN(c6ccc(-c7cnc8[nH]cc(C(=O)c9c(F)ccc(NS(=O)(=O)N%10CC[C@@H](F)C%10)c9F)c8c7)cc6)CC5)CC(F)(F)C4)ccc3C2=O)C(=O)N1` (stereo partly drawn) [Compound 333, (3R)-N-[3-(5-{4-[4-({4-[2-(2,6-dioxopiperidin-3-yl)-1-oxo-2,3-dihydro-1H-isoindol-5-yl]-6,6-difluoro-1,4-diazepan-1-yl}methyl)piperidin-1-yl]phenyl}-1H-pyrrolo[2,3-b]pyridine-3-carbonyl)-2,4-difluorophenyl]-3-fluoropyrrolidine-1-sulfonamide], the DC50 on BRAF V600E is above 0.5 µM. On BRAF G466V, the half-maximal degradation concentration (DC50) lay in the range of 0.001 to 0.01 µM and the Dmax is below 35%.
In the case of `O=C1CCC(N2Cc3cc(N4CC(CN5CCC(C6(c7ncc(-c8cnc9[nH]cc(C(=O)c%10c(F)ccc(NS(=O)(=O)N%11CC[C@@H](F)C%11)c%10F)c9c8)cn7)CC6)CC5)C4)ccc3C2=O)C(=O)N1` (stereo partly shown) [Compound 334], on BRAF V600E, the DC50 lay in the range of 0.05 to 0.5 µM and the Dmax was 35 to 70%. Moreover, on BRAF G466V, the DC50 fell in the range of 0.001 to 0.01 µM and the Dmax is above 70%.
For `O=C1CC[C@H](N2Cc3cc(N4CC[C@@H](COc5ccc(-c6cnc7[nH]cc(C(=O)c8c(F)ccc(NS(=O)(=O)N9CC[C@@H](F)C9)c8F)c7c6)cc5)C4)ccc3C2=O)C(=O)N1` [Compound 335, (3R)-N-{3-[5-(4-{[(3R)-1-{2-[(3S)-2,6-dioxopiperidin-3-yl]-1-oxo-2,3-dihydro-1H-isoindol-5-yl}pyrrolidin-3-yl]methoxy}phenyl)-1H-pyrrolo[2,3-b]pyridine-3-carbonyl]-2,4-difluorophenyl}-3-fluoropyrrolidine-1-sulfonamide], the DC50 at BRAF V600E was above 0.5 µM; at BRAF G466V, above 0.03 µM.
Turning to `O=C1CC[C@@H](N2Cc3cc(N4CC[C@@H](COc5ccc(-c6cnc7[nH]cc(C(=O)c8c(F)ccc(NS(=O)(=O)N9CC[C@@H](F)C9)c8F)c7c6)cc5)C4)ccc3C2=O)C(=O)N1` [Compound 336, (3R)-N-{3-[5-(4-{[(3R)-1-{2-[(3R)-2,6-dioxopiperidin-3-yl]-1-oxo-2,3-dihydro-1H-isoindol-5-yl}pyrrolidin-3-yl]methoxy}phenyl)-1H-pyrrolo[2,3-b]pyridine-3-carbonyl]-2,4-difluorophenyl}-3-fluoropyrrolidine-1-sulfonamide], on BRAF V600E, the DC50 is above 0.5 µM and the Dmax lay in the range of 35 to 70%. Also, the DC50 at BRAF G466V was above 0.03 µM.
For `Cn1c(=O)n(C2CCC(=O)NC2=O)c2cccc(C3CCN(CC4CCN(c5ccc(-c6cnc7[nH]cc(C(=O)c8c(F)ccc(NS(=O)(=O)N9CC[C@@H](F)C9)c8F)c7c6)cc5)CC4)CC3)c21` (stereo partly drawn) [Compound 337, (3R)—N-(3-(5-(4-(4-((4-(1-(2,6-dioxopiperidin-3-yl)-3-methyl-2-oxo-2,3-dihydro-1H-benzo[d]imidazol-4-yl)piperidin-1-yl)methyl)piperidin-1-yl)phenyl)-1H-pyrrolo[2,3-b]pyridine-3-carbonyl)-2,4-difluorophenyl)-3-fluoropyrrolidine-1-sulfonamide], at BRAF V600E, the DC50 was in the range of 0.005 to 0.05 µM and the Dmax was in the range of 35 to 70%. For the same molecule, on BRAF G466V, the DC50 was 0.001 to 0.01 µM and the greatest degradation seen (Dmax) was above 70%.
Taken in the same sequence, the figures for `CCCS(=O)(=O)Nc1ccc(F)c(-n2cc(-c3cncnc3)c3nc(N(C)C4CCN(C(=O)CCOCCOCCOCCOCCNc5cccc6c5C(=O)N(C5CCC(=O)NC5=O)C6=O)CC4)ccc32)c1F` (stereo not shown) [Compound 338] were 0.05 to 0.5 µM, 35 to 70%, 0.01 to 0.03 µM and 35 to 70%.
Taken in the same sequence, the figures for `O=C1CC[C@H](NC(=O)c2ccc(N3CCC(CN4CCN(c5ccc(-c6cnc7[nH]cc(C(=O)c8c(F)ccc(NS(=O)(=O)N9CC[C@@H](F)C9)c8F)c7c6)cc5)CC4)CC3)cc2F)C(=O)N1` [Compound 339, 4-(4-{[4-(4-{3-[2,6-difluoro-3-({[(3R)-3-fluoropyrrolidin-1-yl]sulfonyl}amino)benzoyl]-1H-pyrrolo[2,3-b]pyridin-5-yl}phenyl)piperazin-1-yl]methyl}piperidin-1-yl)-N-[(3S)-2,6-dioxopiperidin-3-yl]-2-fluoorobenzamide] were 0.005 to 0.05 µM, 35 to 70%, 0.001 to 0.01 µM and above 70%.
Taken in the same sequence, the figures for `O=C1CC[C@@H](NC(=O)c2ccc(N3CCC(CN4CCN(c5ccc(-c6cnc7[nH]cc(C(=O)c8c(F)ccc(NS(=O)(=O)N9CC[C@@H](F)C9)c8F)c7c6)cc5)CC4)CC3)cc2F)C(=O)N1` [Compound 340] were 0.05 to 0.5 µM, below 35%, 0.001 to 0.01 µM and 35 to 70%.
Take `O=C1CC[C@H](NC(=O)c2ccc(N3CCN(CC4CCN(c5ccc(-c6cnc7[nH]cc(C(=O)c8c(F)ccc(NS(=O)(=O)N9CC[C@@H](F)C9)c8F)c7c6)cc5)CC4)CC3)cc2F)C(=O)N1` [Compound 341, 4-(4-{[1-(4-{3-[2,6-difluoro-3-({[(3R)-3-fluoropyrrolidin-1-yl]sulfonyl}amino)benzoyl]-1H-pyrrolo[2,3-b]pyridin-5-yl}phenyl)piperidin-1-yl]methyl}piperazin-1-yl)-N-[(3S)-2,6-dioxopiperidin-3-yl]-2-fluorobenzamide]: the DC50 at BRAF V600E is 0.005 to 0.05 µM; on BRAF G466V it was 0.001 to 0.01 µM. Further, the Dmax was 35 to 70% at BRAF V600E and above 70% on BRAF G466V.
The corresponding values for `O=C1CC[C@@H](NC(=O)c2ccc(N3CCN(CC4CCN(c5ccc(-c6cnc7[nH]cc(C(=O)c8c(F)ccc(NS(=O)(=O)N9CC[C@@H](F)C9)c8F)c7c6)cc5)CC4)CC3)cc2F)C(=O)N1` [Compound 342, 4-(4-{[1-(4-{3-[2,6-difluoro-3-({[(3R)-3-fluoropyrrolidin-1-yl]sulfonyl}amino)benzoyl]-1H-pyrrolo[2,3-b]pyridin-5-yl}phenyl)piperidin-4-yl]methyl}piperazin-1-yl)-N-[(3R)-2,6-dioxopiperidin-3-yl]-2-fluorobenzamide] are 0.05 to 0.5 µM, 0.001 to 0.01 µM, below 35% and 35 to 70%.
Regarding `COc1cc(N2CC3(CN(CC4CCN(c5ccc(-c6cnc7[nH]cc(C(=O)c8c(F)ccc(NS(=O)(=O)N9CC[C@@H](F)C9)c8F)c7c6)cc5)CC4)C3)C2)ccc1C(=O)N[C@H]1CCC(=O)NC1=O` [Compound 343, 4-(6-{[1-(4-{3-[2,6-difluoro-3-({[(3R)-3-fluoropyrrolidin-1-yl]sulfonyl}amino)benzoyl]-1H-pyrrolo[2,3-b]pyridin-5-yl}phenyl)piperidin-4-yl]methyl}-2,6-diazaspiro[3.3]heptan-2-yl)-N-[(3S)-2,6-dioxopiperidin-3-yl]-2-methoxybenzamide], on BRAF V600E, the DC50 fell in the range of 0.005 to 0.05 µM and the Dmax was in the range of 35 to 70%. In addition, on BRAF G466V, the DC50 is 0.001 to 0.01 µM and the maximal degradation (Dmax) is above 70%.
Turning to `COc1cc(N2CC3(CN(CC4CCN(c5ccc(-c6cnc7[nH]cc(C(=O)c8c(F)ccc(NS(=O)(=O)N9CC[C@@H](F)C9)c8F)c7c6)cc5)CC4)C3)C2)ccc1C(=O)N[C@@H]1CCC(=O)NC1=O` [Compound 344, 4-(6-{[1-(4-{3-[2,6-difluoro-3-({[(3R)-3-fluoropyrroldiin-1-yl]sulfonyl}amino)benzoyl]-1H-pyrrolo[2,3-b]pyridin-5-yl}phenyl)piperidin-4-yl]methyl}-2,6-diazaspiro[3.3]heptan-2-yl)-N-[(3R)-2,6-dioxopiperidin-3-yl]-2-methoxybenzamide], on BRAF V600E, the DC50 fell in the range of 0.05 to 0.5 µM and the Dmax was below 35%. On BRAF G466V, the DC50 fell in the range of 0.01 to 0.03 µM and the Dmax is above 70%.
Taken in the same sequence, the figures for `O=C1CC[C@H](NC(=O)c2ccc(N3CC4(CN(CC5CCN(c6ccc(-c7cnc8[nH]cc(C(=O)c9c(F)ccc(NS(=O)(=O)N%10CC[C@@H](F)C%10)c9F)c8c7)cc6)CC5)C4)C3)cn2)C(=O)N1` [Compound 345, 5-(6-{[1-(4-{3-[2,6-difluoro-3-({[(3R)-3-fluoropyrrolidin-1-yl]sulfonyl}amino)benzoyl]-1H-pyrrolo[2,3-b]pyridin-5-yl}phenyl)piperidin-4-yl]methyl}-2,6-diazaspiro[3.3]heptan-2-yl)-N-[(3S)-2,6-dioxopiperidin-3-yl]pyridine-2-carboxamide] were 0.005 to 0.05 µM, 35 to 70%, 0.001 to 0.01 µM and above 70%.

The record behind these values is patent US12180193B2, “Accelerating fibrosarcoma protein degrading compounds and associated methods of use” (Arvinas Operations, Inc., priority 2020, dated 2024).
